Source: patent publication US20230085307A1, “PYRIDAZINONE COMPOUND AND HERBICIDE” (NISSAN CHEMICAL CORPORATION, priority 2019, published 2023)

What was measured:
Japanese bulrush = experiment: Test Example 1: herbicidal activity, application before weed generation under submerged conditions (Table 16, symbol B); format: in vivo, Japanese bulrush (Schoenoplectus juncoides); details: amount of applied herbicide 296 g/ha
Summary of the method: (§1)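 Alluvial soil was flooded to 4 cm depth, weed seeds were sown mixed and 2.5-leaf rice seedlings were transplanted. On sowing day, the compound's emulsion, diluted in water to a set dose, was applied to the water surface. Plants grew at 25–30 °C and were scored 0–5 after three weeks.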

oval-leafed pondweed [1] = experiment: Test Example 1: herbicidal activity, application before weed generation under submerged conditions (Table 16, symbol C); format: in vivo, oval-leafed pondweed (Monochoria vaginalis); details: amount of applied herbicide 296 g/ha
Summary of the method: as §1

late watergrass = experiment: Test Example 2: herbicidal activity, application during weed generation under submerged conditions (Table 17, symbol A); format: in vivo, late watergrass (Echinochloa oryzicola); details: AAH 296 g/ha; application during weed generation, submerged conditions
Summary of the method: (§2)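 3-wk visual-criteria score after one water-surface dose. Emulsion formulation, water-diluted to set rate; applied at 1–2 leaf stage; alluvial soil, 4 cm standing water; seeds co-sown; greenhouse 25–30° C.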

oval-leafed pondweed [2] = experiment: Test Example 2: herbicidal activity, application during weed generation under submerged conditions (Table 17, symbol C); format: in vivo, oval-leafed pondweed (Monochoria vaginalis); details: AAH 296 g/ha; application during weed generation, submerged conditions
Summary of the method: as §2

barnyard grass [3] = experiment: Test Example 3: herbicidal effect by foliage application, Wagner pot (Table 18, symbol H); format: in vivo, barnyard grass (Echinochloa crus-galli); details: 296 g/ha
Summary of the method: (§3)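 Plants were sown in alluvial soil held under 0.1–0.5 cm standing water and grown 14 days in a greenhouse at 25–30 °C. An emulsifiable formulation, water-diluted to the set dose, was then sprayed onto the foliage, and effects were scored three weeks later using previously defined criteria.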

rice flat sedge = experiment: Test Example 3: herbicidal effect by foliage application, Wagner pot (Table 18, symbol E); format: in vivo, rice flat sedge (Cyperus iria); details: 296 g/ha
Summary of the method: as §3

southern crabgrass [4] = experiment: Test Example 4: herbicidal effect by soil treatment (Table 19, symbol F); format: in vivo, southern crabgrass (Digitaria ciliaris); details: amount of applied herbicide 296 g/ha
Summary of the method: (§4)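 Seeds were sown in sterilized diluvial soil and covered with about 1.5 cm of soil. An emulsion formulation diluted with water to a predetermined herbicide amount was sprayed evenly onto the soil surface. Plants grew in a greenhouse at 25° C. to 30° C., and the effect was scored three weeks after application using criteria from an earlier test.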

blackgrass [5] = experiment: Test Example 4: herbicidal effect by soil treatment (Table 19, symbol J); format: in vivo, blackgrass (Alopecurus myosuroides); details: amount of applied herbicide 296 g/ha
Summary of the method: as §4

velvetleaf = experiment: Test Example 4: herbicidal effect by soil treatment (Table 19, symbol M); format: in vivo, velvetleaf (Abutilon theophrasti); details: amount of applied herbicide 296 g/ha
Summary of the method: as §4

redroot pigweed = experiment: Test Example 4: herbicidal effect by soil treatment (Table 19, symbol N); format: in vivo, redroot pigweed (Amaranthus retroflexus); details: amount of applied herbicide 296 g/ha
Summary of the method: as §4

false cleavers = experiment: Test Example 4: herbicidal effect by soil treatment (Table 19, symbol Q); format: in vivo, false cleavers (Galium spurium); details: amount of applied herbicide 296 g/ha
Summary of the method: as §4

persian speedwell = experiment: Test Example 4: herbicidal effect by soil treatment (Table 19, symbol R); format: in vivo, Persian speedwell (Veronica persica); details: amount of applied herbicide 296 g/ha
Summary of the method: as §4

southern crabgrass [6] = experiment: Test Example 5: herbicidal effect by foliage application, plastic box (Table 20, symbol F); format: in vivo, southern crabgrass (Digitaria ciliaris); details: foliage application, 296 g/ha, three weeks after application
Summary of the method: (§5)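 Plants sown in sterilized diluvial soil and grown 14 days in a greenhouse at 25° C to 30° C, then sprayed on the foliage with the compound's emulsion diluted in water to a predetermined herbicide amount. Injury to weeds and crops scored three weeks after application on a visual rating scale.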

barnyard grass [7] = experiment: Test Example 5: herbicidal effect by foliage application, plastic box (Table 20, symbol H); format: in vivo, barnyard grass (Echinochloa crus-galli); details: foliage application, 296 g/ha, three weeks after application
Summary of the method: as §5

blackgrass [8] = experiment: Test Example 5: herbicidal effect by foliage application, plastic box (Table 20, symbol J); format: in vivo, blackgrass (Alopecurus myosuroides); details: foliage application, 296 g/ha, three weeks after application
Summary of the method: as §5

Italian ryegrass = experiment: Test Example 5: herbicidal effect by foliage application, plastic box (Table 20, symbol K); format: in vivo, Italian ryegrass (Lolium multiflorum); details: foliage application, 296 g/ha, three weeks after application
Summary of the method: as §5

chickweed = experiment: Test Example 5: herbicidal effect by foliage application, plastic box (Table 20, symbol P); format: in vivo, common chickweed (Stellaria media); details: foliage application, 296 g/ha, three weeks after application
Summary of the method: as §5

## CCCC(=O)Oc1c(C)nn(C)c(=O)c1-c1c(-c2ccccc2OC)sc2cc(OC)ccc12 [Compound No. 3-066, 5-(6-methoxy-2-(2-methoxyphenyl)benzo[b]thiophen-3-yl)-1,3-dimethyl-6-oxo-1,6-dihydropyridazin-4-yl=(n-butyrate)]
Japanese bulrush
  Herbicidal effect, B: Japanese bulrush: 5 (Herbicidal rate of 90% or more (almost completely withered))
oval-leafed pondweed [1]
  Herbicidal effect, C: oval-leafed pondweed: 5 (Herbicidal rate of 90% or more (almost completely withered))
Late watergrass
  herbicidal effect rating, A: late watergrass: 3 (Herbicidal rate of 40% or more and less than 70%)
oval-leafed pondweed [2]
  herbicidal effect rating, C: oval-leafed pondweed: 5 (Herbicidal rate of 90% or more (almost completely withered))
Barnyard grass [3]
  herbicidal effect on barnyard grass (H): 5 (Herbicidal rate of 90% or more (almost completely withered))
Rice flat sedge
  herbicidal effect on rice flat sedge (E): 5 (Herbicidal rate of 90% or more (almost completely withered))
Southern crabgrass [4]
  F: southern crabgrass, herbicidal effect grade: 0 (Herbicidal rate of 5% or less (almost no effect))
Blackgrass [5]
  J: blackgrass, herbicidal effect grade: 3 (Herbicidal rate of 40% or more and less than 70%)
velvetleaf
  M: velvetleaf, herbicidal effect grade: 0 (Herbicidal rate of 5% or less (almost no effect))
Redroot pigweed
  N: redroot pigweed, herbicidal effect grade: 0 (Herbicidal rate of 5% or less (almost no effect))
False cleavers
  Q: false cleavers, herbicidal effect grade: 2 (Herbicidal rate of 20% or more and less than 40%)
Persian speedwell
  R: persian speedwell, herbicidal effect grade: 3 (Herbicidal rate of 40% or more and less than 70%)
Southern crabgrass [6]
  F: southern crabgrass, herbicidal effect grade: 4 (Herbicidal rate of 70% or more and less than 90%)
Barnyard grass [7]
  H: barnyard grass, herbicidal effect grade: 4 (Herbicidal rate of 70% or more and less than 90%)
Blackgrass [8]
  J: blackgrass, herbicidal effect grade: 4 (Herbicidal rate of 70% or more and less than 90%)
Italian ryegrass
  K: Italian ryegrass, herbicidal effect grade: 4 (Herbicidal rate of 70% or more and less than 90%)
chickweed
  P: chickweed, herbicidal effect grade: 5 (Herbicidal rate of 90% or more (almost completely withered))
